The numbers were not newly measured in patent US20170333424A1, “Amorphous Vortioxetine Hydrobromide” (Hexal AKTIENGESELLSCHAFT, priority 2014, published 2017), which cites them from elsewhere.

Structures can show the parent of a compound that is named as a salt.

For the data set the following is noted: class II means high permeability, but low solubility.

Regarding `Cc1ccc(Sc2ccccc2N2CCNCC2)c(C)c1` [vortioxetine hydrobromide], the BCS class entry was “class II”.
